The structures appear in SMILES notation.

The nature of the data set: Pharmacokinetic properties in SD rats after intramuscular injection. To be noted: male SD rats, i.m., 90 mg/kg (based on donepezil), oil solvent, plasma, LC/MS/MS. From the text:
Pharmacokinetic Properties of Compounds of the Present Invention Administered to Rats
In the present embodiment, male SD rats (SPF grade), aged […] and weighing 180 to 220 g, were purchased from Shanghai Slack laboratory Animal Co., Ltd. Throughout the process of the experiment, give the rats free access to food and water.
Adopting grouping of random grouping design, the SD rats for experiments were grouped according to gender and body weight.
The whole blood was collected and placed on ice, followed by centrifugation at 4° C., 8000 rpm and 5 min to collect plasma The plasma was transferred to a 96-well plate and stored at −20° C. until LC-MS/MS examination. Drug concentrations in EDTA (4 mM) anticoagulated plasma of SD rats were determined using LC/MS/MS (Agilent6460). Using WinNonlin 5.2 software, calculate respective relevant pharmacokinetic parameters of each group at each time point after administration according to statistical moment theory.
t1/2 was calculated by the formula t1/2=0.693/λz; λz is an end elimination rate constant derived from the logarithmic concentration—the straight part of the end of time curve, which can be derived from the slope of the logarithmic concentration—the straight part of the end of time curve.

For the compound `CCCCCCC(=O)OC1=C(CC2CCN(Cc3ccccc3)CC2)Cc2cc(OC)c(OC)cc21` [Compound 3, Donepezil Heptanoate], under “measured value”, the peak concentration (Cmax) (commonly the maximum level reached in the sampled fluid or tissue) was found to be 44.11 ng/mL and the time of peak concentration (Tmax) (in general, the time at which the peak concentration occurs) was determined as 18.00 h. This compound also displayed a T1/2 (t1/2=0.693/λz) of 314.18 h.

(Values after US10632111B2 (priority 2014, dated 2020).)
